Data published in patent US20200392158A1, “INHIBITORS OF LEUCINE RICH REPEAT KINASE 2” (GLAXOSMITHKLINE INTELLECTUAL PROPERTY DEVELOPMENT LIMITED, priority 2017, published 2020).
Structures can show the parent of a compound that is named as a salt.

The compounds below were run against T1, full length G2019 human LRRK2 (Homo sapiens, UniProt Q5S007, R50H) (assay: Full length G2019 human LRRK2 inhibition mass spectrometry assay). Settings: LRRKtide to phospho-LRRKtide conversion, RapidFire MS, 2 mM ATP.
T1 construct: made in house; host or cells: HEK293 6E cells transduced with BacMam virus (virus generated in Sf9 cells)
T1 sequence (Q5S007 with tags, fused parts or gaps R50H): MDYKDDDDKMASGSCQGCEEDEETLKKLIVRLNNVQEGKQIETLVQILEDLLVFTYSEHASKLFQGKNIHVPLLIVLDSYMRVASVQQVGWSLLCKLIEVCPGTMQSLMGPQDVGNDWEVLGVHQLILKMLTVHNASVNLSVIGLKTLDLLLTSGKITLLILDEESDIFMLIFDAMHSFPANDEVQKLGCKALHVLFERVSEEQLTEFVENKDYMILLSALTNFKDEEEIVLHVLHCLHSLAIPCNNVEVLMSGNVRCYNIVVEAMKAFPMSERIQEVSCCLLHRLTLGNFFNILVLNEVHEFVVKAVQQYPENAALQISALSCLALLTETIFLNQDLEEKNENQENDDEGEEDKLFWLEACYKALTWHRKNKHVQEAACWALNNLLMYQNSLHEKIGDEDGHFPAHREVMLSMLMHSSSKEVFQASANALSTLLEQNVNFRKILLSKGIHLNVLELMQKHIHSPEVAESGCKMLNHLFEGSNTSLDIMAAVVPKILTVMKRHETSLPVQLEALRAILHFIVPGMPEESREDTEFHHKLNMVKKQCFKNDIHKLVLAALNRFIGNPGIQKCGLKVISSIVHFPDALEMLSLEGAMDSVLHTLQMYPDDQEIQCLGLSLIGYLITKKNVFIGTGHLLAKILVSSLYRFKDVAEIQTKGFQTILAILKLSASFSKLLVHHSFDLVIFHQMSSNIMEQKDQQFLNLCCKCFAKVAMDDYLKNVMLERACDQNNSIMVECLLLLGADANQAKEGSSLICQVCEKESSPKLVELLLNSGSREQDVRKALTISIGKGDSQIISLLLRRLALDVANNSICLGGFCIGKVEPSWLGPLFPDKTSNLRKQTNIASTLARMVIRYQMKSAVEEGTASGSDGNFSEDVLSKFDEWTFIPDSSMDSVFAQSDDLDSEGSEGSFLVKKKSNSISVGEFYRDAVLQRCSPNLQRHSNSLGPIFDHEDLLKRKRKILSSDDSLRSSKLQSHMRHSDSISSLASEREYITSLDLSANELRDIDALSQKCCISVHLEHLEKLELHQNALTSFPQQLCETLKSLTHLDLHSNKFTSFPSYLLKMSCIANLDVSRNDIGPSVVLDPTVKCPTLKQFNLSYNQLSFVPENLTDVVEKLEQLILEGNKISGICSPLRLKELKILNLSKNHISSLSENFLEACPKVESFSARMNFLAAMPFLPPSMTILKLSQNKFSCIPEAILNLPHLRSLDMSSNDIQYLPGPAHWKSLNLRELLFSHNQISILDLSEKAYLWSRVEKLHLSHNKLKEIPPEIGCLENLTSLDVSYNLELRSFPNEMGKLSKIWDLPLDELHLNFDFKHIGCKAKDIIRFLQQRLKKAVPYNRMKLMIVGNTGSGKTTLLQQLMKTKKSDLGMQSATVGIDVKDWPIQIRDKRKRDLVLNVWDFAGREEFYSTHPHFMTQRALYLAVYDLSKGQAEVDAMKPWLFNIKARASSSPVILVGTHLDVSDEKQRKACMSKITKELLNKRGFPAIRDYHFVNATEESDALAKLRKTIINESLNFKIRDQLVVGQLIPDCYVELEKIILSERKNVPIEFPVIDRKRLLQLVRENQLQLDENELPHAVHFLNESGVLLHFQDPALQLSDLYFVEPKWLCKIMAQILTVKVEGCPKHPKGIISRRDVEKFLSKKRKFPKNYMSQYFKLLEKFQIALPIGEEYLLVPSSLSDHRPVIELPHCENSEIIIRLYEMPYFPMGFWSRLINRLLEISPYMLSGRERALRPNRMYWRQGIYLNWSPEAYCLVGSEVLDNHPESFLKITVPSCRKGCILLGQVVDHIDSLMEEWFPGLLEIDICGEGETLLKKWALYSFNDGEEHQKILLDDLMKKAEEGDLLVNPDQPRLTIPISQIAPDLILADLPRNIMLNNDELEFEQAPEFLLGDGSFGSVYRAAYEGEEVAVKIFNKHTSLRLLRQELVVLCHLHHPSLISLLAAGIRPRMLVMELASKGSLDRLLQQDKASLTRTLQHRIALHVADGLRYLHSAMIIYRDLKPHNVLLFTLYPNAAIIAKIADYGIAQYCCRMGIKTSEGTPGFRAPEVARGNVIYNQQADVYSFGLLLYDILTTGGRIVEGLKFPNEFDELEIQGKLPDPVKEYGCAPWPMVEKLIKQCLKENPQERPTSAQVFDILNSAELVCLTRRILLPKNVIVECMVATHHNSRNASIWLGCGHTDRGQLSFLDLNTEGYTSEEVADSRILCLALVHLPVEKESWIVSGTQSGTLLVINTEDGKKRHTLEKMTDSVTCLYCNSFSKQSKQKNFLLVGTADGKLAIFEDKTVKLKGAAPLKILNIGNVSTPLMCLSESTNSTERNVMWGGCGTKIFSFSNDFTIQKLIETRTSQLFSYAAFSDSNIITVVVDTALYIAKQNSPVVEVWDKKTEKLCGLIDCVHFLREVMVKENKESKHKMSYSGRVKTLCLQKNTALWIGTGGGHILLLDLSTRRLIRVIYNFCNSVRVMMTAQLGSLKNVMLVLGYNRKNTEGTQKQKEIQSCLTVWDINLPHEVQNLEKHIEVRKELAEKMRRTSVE
Format: biochemical
Method in brief: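 Inhibition taken as reduced LRRKtide phosphorylation, quantified by RapidFire-coupled triple-quadrupole MS as product/(product+substrate) peak area. Reaction: 2 mM ATP, 25 μM peptide, ~25 nM full-length G2019 Flag-LRRK2, Hepes pH 7.2 buffer, room temperature for 1 h. 11-point 1-in-4 dilutions from 100 μM; logistic fit gives IC50, reported as pIC50.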

IC50 | SMILES
≤ 100 nM | Cc1c2c(nn1C1COCCC1(F)F)OCCCNc1nc(ncc1Cl)N2 (racemic) [E364, 14-Chloro-5-(4,4-difluorooxan-3-yl)-4-methyl-8-oxa-2,5,6,12,16,17-hexaazatricyclo[11.3.1.0^3,7]heptadeca-1(16),3,6,13(17),14-pentaene]
≤ 100 nM | COC1CNc2nc(ncc2Cl)Nc2c(nn(C3CCOCC3)c2C)OC1 (single isomer, unassigned) [E3, 14-chloro-10-methoxy-4-methyl-5-(oxan-4-yl)-8-oxa-2,5,6,12,16,17-hexaazatricyclo [11.3.1.0^3,7]heptadeca-1(16),3,6,13(17),14-pentaene]
≤ 100 nM | CCC1CCOc2nn(C3CCOCC3)c(C)c2Nc2ncc(Cl)c(n2)N1 (single isomer, unassigned) [E20, 14-chloro-11-ethyl-4-methyl-5-(oxan-4-yl)-8-oxa-2,5,6,12,16,17-hexaazatricyclo[11.3.1.0^3,7]heptadeca-1(16),3,6,13(17),14-pentaene]
≤ 100 nM | Cc1c2c(nn1C1CCOCC1)OCCC(C)Nc1nc(ncc1Br)N2 (single isomer, unassigned) [E30, 14-bromo-4,11-dimethyl-5-(oxan-4-yl)-8-oxa-2,5,6,12,16,17-hexaaza tricyclo[11.3.1.0^3,7]heptadeca-1(16),3,6,13(17),14-pentaene]
≤ 100 nM | Cc1c2c(nn1C1CCOCC1)OCC(C)C(C)Nc1nc(ncc1Cl)N2 (single isomer, unassigned) [E32, 14-chloro-4,10,11-trimethyl-5-(oxan-4-yl)-8-oxa-2,5,6,12,16,17-hexaazatricyclo [11.3.1.0^3,7]heptadeca-1(16),3,6,13(17),14-pentaene]

Each compound was assayed against T2, LRRK2 kinase in SH-SY5Y cells over-expressing recombinant full length LRRK2 (Homo sapiens, UniProt Q5S007) (assay: Recombinant cellular LRRK2 AlphaScreen assay (LRRK2 Ser935 phosphorylation)). Settings: 60 min.
T2 construct: A BacMam virus expressing full length recombinant LRRK2 was purchased from Invitrogen; host or cells: SH-SY5Y human neuroblastoma cells transduced with BacMam LRRK2 virus
T2 sequence (Q5S007 whole entry): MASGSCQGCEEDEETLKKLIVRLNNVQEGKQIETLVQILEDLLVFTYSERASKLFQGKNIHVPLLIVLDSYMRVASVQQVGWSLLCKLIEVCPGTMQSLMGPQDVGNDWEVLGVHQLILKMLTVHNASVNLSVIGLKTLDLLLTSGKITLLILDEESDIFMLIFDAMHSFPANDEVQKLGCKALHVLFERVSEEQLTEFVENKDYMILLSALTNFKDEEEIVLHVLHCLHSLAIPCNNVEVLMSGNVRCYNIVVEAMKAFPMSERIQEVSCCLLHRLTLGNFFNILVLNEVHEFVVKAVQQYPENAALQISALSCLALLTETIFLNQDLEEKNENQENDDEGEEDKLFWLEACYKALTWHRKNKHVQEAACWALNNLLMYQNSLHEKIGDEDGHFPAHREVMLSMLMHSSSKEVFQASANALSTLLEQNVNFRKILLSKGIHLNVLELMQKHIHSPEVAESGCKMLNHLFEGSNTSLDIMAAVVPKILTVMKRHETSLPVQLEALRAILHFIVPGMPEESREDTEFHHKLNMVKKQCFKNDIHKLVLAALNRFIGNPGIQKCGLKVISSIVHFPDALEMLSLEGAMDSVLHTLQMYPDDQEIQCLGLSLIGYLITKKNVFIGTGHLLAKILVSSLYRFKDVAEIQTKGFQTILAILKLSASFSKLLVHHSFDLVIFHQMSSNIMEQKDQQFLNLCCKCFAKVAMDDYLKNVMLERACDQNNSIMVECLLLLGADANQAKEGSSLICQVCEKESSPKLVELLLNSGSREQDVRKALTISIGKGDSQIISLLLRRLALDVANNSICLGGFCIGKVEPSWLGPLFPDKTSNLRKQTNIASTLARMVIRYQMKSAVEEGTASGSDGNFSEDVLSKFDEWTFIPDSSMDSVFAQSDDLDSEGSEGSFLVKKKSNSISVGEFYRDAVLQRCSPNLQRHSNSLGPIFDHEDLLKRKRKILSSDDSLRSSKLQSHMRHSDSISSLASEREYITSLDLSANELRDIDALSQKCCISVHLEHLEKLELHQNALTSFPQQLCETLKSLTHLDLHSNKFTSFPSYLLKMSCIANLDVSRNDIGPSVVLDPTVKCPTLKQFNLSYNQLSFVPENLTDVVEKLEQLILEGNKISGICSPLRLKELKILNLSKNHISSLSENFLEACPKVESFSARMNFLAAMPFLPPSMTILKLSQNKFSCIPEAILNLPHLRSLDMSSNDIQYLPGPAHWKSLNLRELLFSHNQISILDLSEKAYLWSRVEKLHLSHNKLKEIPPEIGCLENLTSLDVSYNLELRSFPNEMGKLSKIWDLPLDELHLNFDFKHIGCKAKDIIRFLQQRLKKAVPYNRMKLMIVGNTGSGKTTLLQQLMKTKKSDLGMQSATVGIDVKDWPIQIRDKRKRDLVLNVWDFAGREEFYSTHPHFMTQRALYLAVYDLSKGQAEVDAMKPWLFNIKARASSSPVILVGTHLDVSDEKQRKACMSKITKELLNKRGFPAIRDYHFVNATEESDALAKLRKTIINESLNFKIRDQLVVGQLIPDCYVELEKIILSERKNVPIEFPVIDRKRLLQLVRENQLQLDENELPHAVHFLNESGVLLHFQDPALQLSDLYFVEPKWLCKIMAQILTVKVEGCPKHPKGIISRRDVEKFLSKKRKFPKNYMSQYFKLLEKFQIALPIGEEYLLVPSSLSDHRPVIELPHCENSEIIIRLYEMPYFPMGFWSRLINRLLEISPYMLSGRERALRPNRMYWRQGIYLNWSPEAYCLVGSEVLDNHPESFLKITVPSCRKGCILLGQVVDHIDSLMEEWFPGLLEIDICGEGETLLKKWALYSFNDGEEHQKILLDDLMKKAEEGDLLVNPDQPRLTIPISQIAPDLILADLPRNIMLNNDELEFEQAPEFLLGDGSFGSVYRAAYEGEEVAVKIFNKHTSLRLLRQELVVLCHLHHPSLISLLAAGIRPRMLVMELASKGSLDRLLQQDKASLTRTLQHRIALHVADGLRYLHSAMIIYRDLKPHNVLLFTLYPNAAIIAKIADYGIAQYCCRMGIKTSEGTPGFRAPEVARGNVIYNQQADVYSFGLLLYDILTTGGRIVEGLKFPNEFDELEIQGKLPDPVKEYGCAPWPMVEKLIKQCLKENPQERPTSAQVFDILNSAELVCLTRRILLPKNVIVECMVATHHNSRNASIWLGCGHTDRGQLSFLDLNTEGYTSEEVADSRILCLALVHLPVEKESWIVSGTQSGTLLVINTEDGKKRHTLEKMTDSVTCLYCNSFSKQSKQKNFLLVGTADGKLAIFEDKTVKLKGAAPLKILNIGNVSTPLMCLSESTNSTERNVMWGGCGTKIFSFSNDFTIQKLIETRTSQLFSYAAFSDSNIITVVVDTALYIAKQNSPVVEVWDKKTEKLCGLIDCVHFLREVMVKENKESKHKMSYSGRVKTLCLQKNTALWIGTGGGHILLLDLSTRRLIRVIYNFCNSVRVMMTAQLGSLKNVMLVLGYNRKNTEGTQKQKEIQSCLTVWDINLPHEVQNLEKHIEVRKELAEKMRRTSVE
Format: cell-based
Method in brief: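 Read-out is AlphaScreen of LRRK2 pSer935 over total LRRK2 in lysates of SH-SY5Y cells over-expressing full-length LRRK2 via BacMam (24 h transduction). Cells were exposed 60 min at 37 °C to an 11-point 1-in-4 dilution series starting at 10 uM; sigmoidal fit.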

SMILES | IC50
COC1CNc2nc(ncc2Cl)Nc2c(nn(C3CCOCC3)c2C)OC1 (single isomer, unassigned) [E3, 14-chloro-10-methoxy-4-methyl-5-(oxan-4-yl)-8-oxa-2,5,6,12,16,17-hexaazatricyclo [11.3.1.0^3,7]heptadeca-1(16),3,6,13(17),14-pentaene] | ≤ 100 nM
CCC1CCOc2nn(C3CCOCC3)c(C)c2Nc2ncc(Cl)c(n2)N1 (single isomer, unassigned) [E20, 14-chloro-11-ethyl-4-methyl-5-(oxan-4-yl)-8-oxa-2,5,6,12,16,17-hexaazatricyclo[11.3.1.0^3,7]heptadeca-1(16),3,6,13(17),14-pentaene] | ≤ 100 nM
Cc1c2c(nn1C1CCOCC1)OCCC(C)Nc1nc(ncc1Br)N2 (single isomer, unassigned) [E30, 14-bromo-4,11-dimethyl-5-(oxan-4-yl)-8-oxa-2,5,6,12,16,17-hexaaza tricyclo[11.3.1.0^3,7]heptadeca-1(16),3,6,13(17),14-pentaene] | ≤ 100 nM
Cc1c2c(nn1C1CCOCC1)OCC(C)C(C)Nc1nc(ncc1Cl)N2 (single isomer, unassigned) [E32, 14-chloro-4,10,11-trimethyl-5-(oxan-4-yl)-8-oxa-2,5,6,12,16,17-hexaazatricyclo [11.3.1.0^3,7]heptadeca-1(16),3,6,13(17),14-pentaene] | ≤ 100 nM
Cc1c2c(nn1CC1(C)COC1)OCCCNc1nc(ncc1Cl)N2 [E143, 14-Chloro-4-methyl-5-[(3-methyloxetan-3-yl)methyl]-8-oxa-2,5,6,12,16,17-hexaazatricyclo[11.3.1.0^3,7]heptadeca-1(16),3,6, 13(17), 14-pentaene] | ≤ 100 nM
Clc1cnc2nc1NCCCOc1nn(C3CCOC3)c(Cl)c1N2 (stereo not shown) [E144, 4,14-Dichloro-5-(oxolan-3-yl)-8-oxa-2,5,6,12,16,17-hexaaza tricyclo[11.3.1.0^3,7]heptadeca-1(16),3,6,13(17),14-pentaene] | ≤ 100 nM
Cc1c2c(nn1CCN1CCOCC1)OCCCNc1nc(ncc1Cl)N2 [E220, 14-Chloro-4-methyl-5-[2-(morpholin-4-yl)ethyl]-8-oxa-2,5,6,12, 16,17-hexaazatricyclo[11.3.1.0^3,7]heptadeca-1(16),3,6,13(17),14-pentaene] | ≤ 100 nM
Cc1c2c(nn1C1CC3(COC3)C1)OCCCNc1nc(ncc1Cl)N2 [E300, 14-Chloro-4-methyl-5-{2-oxaspiro[3.3]heptan-6-yl}-8-oxa-2,5,6,12,16,17-hexaazatricyclo[11.3.1.0^3,7]heptadeca-1(16),3,6,13(17),14-pentaene] | ≤ 100 nM
Cc1c2c(nn1C1CC(N3C[C@H]4C[C@@H]3CO4)C1)OCCCNc1nc(ncc1Cl)N2 (stereo partly drawn) [E310, 14-Chloro-4-methyl-5-{3-[(1R,4R)-2-oxa-5-azabicyclo[2.2.1]heptan-5-yl]-cyclobutyl}-8-oxa-2,5,6,12,16,17-hexaazatricyclo [11.3.1.0^3,7]heptadeca-1(16),3,6,13(17),14-pentaene] | ≤ 100 nM
Cc1c2c(nn1C1CCOC(CO)C1)OCC[C@@H](C)Nc1nc(ncc1Cl)N2 (stereo partly drawn) [E331, {4-[(11R)-14-Chloro-4,11-dimethyl-8-oxa-2,5,6,12,16,17-hexaazatricyclo[11.3.1.0^3,7]heptadeca-1(16),3,6,13(17),14-pentaen-5-yl]oxan-2-yl}methanol] | ≤ 100 nM
Cc1c2c(nn1CC1CCOCC1)OCCCNc1nc(ncc1Cl)N2 [E338, 14-Chloro-4-methyl-5-(oxan-4-ylmethyl)-8-oxa-2,5,6,12,16,17-hexaazatricyclo[11.3.1.0^3,7]heptadeca-1(16),3,6,13(17),14-pentaene] | ≤ 100 nM
COC1CNc2nc(ncc2Cl)Nc2c(nn(C3CCOCC3)c2Cl)OC1 (stereo not shown) [E339, 4,14-Dichloro-10-methoxy-5-(oxan-4-yl)-8-oxa-2,5,6,12,16,17-hexaazatricyclo[11.3.1.0^3,7]heptadeca-1(16),3,6,13(17),14-pentaene] | ≤ 100 nM
COC1CNc2cc(ncc2Cl)Nc2c(nn(C3CCOCC3)c2C)OC1 (stereo not shown) [E342, 14-Chloro-10-methoxy-4-methyl-5-(oxan-4-yl)-8-oxa-2,5,6, 12,16-pentaazatricyclo[11.3.1.0^3,7]heptadeca-1(16),3,6,13(17), 14-pentaene] | ≤ 100 nM

The next lines start with the values.

IC50 | SMILES
≤ 100 nM | Cc1c2c(nn1C1COCCC1(F)F)OCCCNc1nc(ncc1Cl)N2 (racemic) [E364, 14-Chloro-5-(4,4-difluorooxan-3-yl)-4-methyl-8-oxa-2,5,6,12,16,17-hexaazatricyclo[11.3.1.0^3,7]heptadeca-1(16),3,6,13(17),14-pentaene]
≤ 100 nM | CC1CCOc2nn(C3CCOCC3)c(Cl)c2Nc2ncc(Cl)c(n2)N1 (stereo not shown) [E343, 4,14-Dichloro-11-methyl-5-(oxan-4-yl)-8-oxa-2,5,6,12,16,17-hexaazatricyclo[11.3.1.0^3,7]heptadeca-1(16),3,6,13(17),14-pentaene]
≤ 100 nM | Cc1c2c(nn1C1CCOCC1)OCC[C@@H](C)N(C)c1nc(ncc1Cl)N2 [E359, (11R)-14-Chloro-4,11,12-trimethyl-5-(oxan-4-yl)-8-oxa-2,5,6,12,16,17-hexaazatricyclo[11.3.1.0^3,7]heptadeca-1(16),3,6,13(17),14-pentaene]
≤ 100 nM | Cc1c2c(nn1C1CCC(F)(F)CC1)OCC[C@@H](C)Nc1nc(ncc1Cl)N2 [E373, (11R)-14-Chloro-5-(4,4-difluorocyclohexyl)-4,11-dimethyl-8-oxa-2,5,6,12,16,17-hexaazatricyclo[11.3.1.0^3,7]heptadeca-1(16),3,6,13 (17),14-pentaene]
≤ 100 nM | Cc1c2c(nn1C1CCC(OC(F)F)CC1)OCC[C@@H](C)Nc1nc(ncc1Cl)N2 (stereo partly drawn) [E374, (11R)-14-Chloro-5-[4-(difluoromethoxy)cyclohexyl]-4,11-di methyl-8-oxa-2,5,6,12,16,17-hexaazatricyclo[11.3.1.0^3,7]hepta deca-1(16),3,6,13(17),14-pentaene]
≤ 100 nM | COCCN1c2nc(ncc2Cl)Nc2c(nn(C3CCOCC3)c2C)OCC[C@H]1C [E400, (11R)-14-Chloro-12-(2-methoxyethyl)-4,11-dimethyl-5-(oxan-4-yl)-8-oxa-2,5,6,12,16,17-hexaazatricyclo[11.3.1.0^3,7]heptadeca-1(16),3,6,13(17),14-pentaene]
≤ 100 nM | Cc1c2c(nn1C1CN(C3COC3)CCO1)OCC[C@@H](C)Nc1nc(ncc1Cl)N2 (stereo partly drawn) [E402, (11R)-14-Chloro-4,11-dimethyl-5-[4-(oxetan-3-yl)morpholin-2-yl]-8-oxa-2,5,6,12,16,17-hexaazatricyclo[11.3.1.0^3,7]heptadeca-1(16),3,6,13(17),14-pentaene]
≤ 100 nM | Cc1[nH]nc2c1Nc1ncc(Cl)c(n1)NCC(C)CO2 (stereo not shown) [E431, 14-Chloro-4,10-dimethyl-8-oxa-2,5,6,12,16,17-hexaazatricyclo[11.3.1.0^3,7]heptadeca-1(16),3,6,13(17),14-pentaene]
≤ 100 nM | Cc1c2c(nn1C1(C)CCOCC1)OCCCNc1nc(ncc1Cl)N2 [E436, 14-Chloro-4-methyl-5-(4-methyloxan-4-yl)-8-oxa-2,5,6,12,16,17-hexaazatricyclo[11.3.1.0^3,7]heptadeca-1(16),3,6,13(17),14-pentaene]
≤ 100 nM | Cc1c2c(nn1C1(C)CCOCC1)OCC[C@@H](C)Nc1nc(ncc1Cl)N2 [E437, (11R)-14-Chloro-4,11-dimethyl-5-(4-methyloxan-4-yl)-8-oxa-2,5,6,12,16,17-hexaazatricyclo[11.3.1.0^3,7]heptadeca-1(16),3,6,13(17),14-pentaene]
≤ 100 nM | N#Cc1cnc2nc1NCCCOc1nn(C3CCOCC3(F)F)c(Cl)c1N2 (stereo not shown) [E438, 4-Chloro-5-(3,3-difluorooxan-4-yl)-8-oxa-2,5,6,12,16,17-hexaazatricyclo[11.3.1.0^3,7]heptadeca-1(16),3,6,13(17),14-pentaene-14-carbonitrile]
≤ 100 nM | C[C@@H]1CCOc2nn(C3CN(C4COCCC4(F)F)C3)c(Cl)c2Nc2ncc(Cl)c(n2)N1 (stereo partly drawn) [E440, (11R)-4,14-Dichloro-5-[1-(4,4-difluorooxan-3-yl)azetidin-3-yl]-11-methyl-8-oxa-2,5,6,12,16,17-hexaazatricyclo[11.3.1.0^3,7]heptadeca-1(16),3,6,13(17),14-pentaene, TFA salt]
> 10000 nM | Cc1c2c(nn1C1CCOCC1)OCCCNc1nc(ncc1C(C)(C)C)N2 [E441, 14-tert-Butyl-4-methyl-5-(oxan-4-yl)-8-oxa-2,5,6,12,16,17-hexaazatricyclo[11.3.1.0^3,7]heptadeca-1(16),3,6,13(17),14-pentaene]
≤ 100 nM | Cc1c2c(nn1C1(C#N)CCOCC1)OCCCNc1nc(ncc1Cl)N2 [E450, 4-{14-chloro-4-methyl-8-oxa-2,5,6,12,16,17-hexaazatricyclo[11.3.1.0^3,7]heptadeca-1(17),3,6,13,15-pentaen-5-yl}oxane-4-carbonitrile]
≤ 100 nM | Cc1c2c(nn1C(C)(C)CO)OCCCNc1nc(ncc1Cl)N2 [E451, 2-{14-Chloro-4-methyl-8-oxa-2,5,6,12,16,17-hexaazatricyclo[11. 3.1.0^3,7]heptadecal 1(16),3,6,13(17),14-pentaen-5-yl}-2-methylpropan-1-ol]
≤ 100 nM | Cc1c2c(nn1C(C)(C)CO)OCC[C@@H](C)Nc1nc(ncc1Cl)N2 [E452, 2-[(11R)-14-Chloro-4,11-dimethyl-8-oxa-2,5,6,12,16,17-hexaazatricyclo[11.3.1.0^3,7]heptadeca-1(16),3,6,13(17),14-pentaen-5-yl]-2-methylpropan-1-ol]
